Measurements: patent US9382254B2, “Compounds and pharmaceutical compositions thereof for the treatment of cystic fibrosis” (Galapagos NV, priority 2013, dated 2016)

What follows are molecules tested against T1, CFTR ΔF508 mutant (Homo sapiens, UniProt P13569, DEL508-508) (assay: YFP-halide influx assay for the CFTR-ΔF508 mutation, gluconate buffer). Conditions: CFBE41o- cells, forskolin 10.67 μM.
T1 construct: expressed in transfected cells; host or cells: CFBE41o- (adenoviral transduction)
Assay type: cell-based
In short: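 CFBE41o- cells adenovirally transduced with CFTR ΔF508 and YFP H148Q/I152L, then held 24 h at 27 °C or treated with CFTR modulator 24 h at 37 °C. I− quenching recorded for 7 s after injection; activity as 1-F/F0, EC50 from concentration plot.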

T1 sequence (P13569 with tags, fused parts or gaps DEL508-508): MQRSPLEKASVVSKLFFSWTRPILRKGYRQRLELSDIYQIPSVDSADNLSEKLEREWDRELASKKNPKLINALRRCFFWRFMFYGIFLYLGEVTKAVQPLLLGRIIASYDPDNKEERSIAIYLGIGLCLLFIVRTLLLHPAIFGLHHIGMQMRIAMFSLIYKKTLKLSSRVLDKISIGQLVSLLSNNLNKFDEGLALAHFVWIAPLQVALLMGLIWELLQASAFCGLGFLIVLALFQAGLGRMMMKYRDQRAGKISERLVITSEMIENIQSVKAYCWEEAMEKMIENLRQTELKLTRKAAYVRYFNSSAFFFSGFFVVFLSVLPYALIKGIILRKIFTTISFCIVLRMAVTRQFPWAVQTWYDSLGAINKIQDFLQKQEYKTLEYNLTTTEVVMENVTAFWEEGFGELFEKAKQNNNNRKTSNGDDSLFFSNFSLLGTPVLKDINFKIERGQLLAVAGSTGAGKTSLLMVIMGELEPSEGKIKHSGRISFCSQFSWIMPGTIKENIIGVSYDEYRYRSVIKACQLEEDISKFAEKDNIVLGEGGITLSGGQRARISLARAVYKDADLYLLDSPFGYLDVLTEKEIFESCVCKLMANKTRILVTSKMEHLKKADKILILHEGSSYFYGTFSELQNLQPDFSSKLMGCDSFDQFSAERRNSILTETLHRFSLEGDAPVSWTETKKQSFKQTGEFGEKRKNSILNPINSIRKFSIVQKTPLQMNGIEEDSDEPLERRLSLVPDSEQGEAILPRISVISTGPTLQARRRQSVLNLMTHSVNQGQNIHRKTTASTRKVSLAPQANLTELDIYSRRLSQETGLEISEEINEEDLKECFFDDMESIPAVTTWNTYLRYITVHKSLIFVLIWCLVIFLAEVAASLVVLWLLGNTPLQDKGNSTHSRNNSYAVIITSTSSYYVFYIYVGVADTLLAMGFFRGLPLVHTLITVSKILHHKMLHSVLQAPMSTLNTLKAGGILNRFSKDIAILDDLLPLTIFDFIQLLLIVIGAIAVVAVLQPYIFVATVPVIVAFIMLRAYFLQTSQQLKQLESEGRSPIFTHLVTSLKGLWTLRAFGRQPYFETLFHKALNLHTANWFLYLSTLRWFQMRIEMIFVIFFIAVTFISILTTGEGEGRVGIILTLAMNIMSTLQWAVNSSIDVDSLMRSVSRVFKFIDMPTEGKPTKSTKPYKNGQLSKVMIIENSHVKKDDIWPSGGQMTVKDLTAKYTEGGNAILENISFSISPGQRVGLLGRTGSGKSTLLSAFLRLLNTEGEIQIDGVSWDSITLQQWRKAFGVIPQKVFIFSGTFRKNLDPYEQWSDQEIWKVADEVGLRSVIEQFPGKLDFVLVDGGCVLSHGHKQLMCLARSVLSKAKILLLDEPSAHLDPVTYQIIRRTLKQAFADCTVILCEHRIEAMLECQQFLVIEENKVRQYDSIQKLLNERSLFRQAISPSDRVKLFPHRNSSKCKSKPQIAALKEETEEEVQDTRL

Compound | EC50
NC(=O)c1cc(S(=O)(=O)N2C[C@@H]3C[C@H]2CO3)sc1NC(=O)c1ccccc1F [Compound 144, 5-((1S,4S)-2-oxa-5-azabicyclo[2.2.1]heptan-5-ylsulfonyl)-2-(2-fluorobenzamido) thiophene-3-carboxamide] | 365 nM
COc1ccc(CN(C)S(=O)(=O)c2cc(C(N)=O)c(NC(=O)c3ccccc3F)s2)cc1 [Compound 147, 2-(2-fluorobenzamido)-5-(N-(4-methoxybenzyl)-N-methylsulfamoyl)thiophene-3-carboxamide] | 242 nM
CC(C)(C)OC(=O)N1CCC2(CC1)CCN(S(=O)(=O)c1cc(C(N)=O)c(NC(=O)c3ccccc3F)s1)C2 [Compound 148, tert-butyl 2-(4-carbamoyl-5-(2-fluorobenzamido)thiophen-2-ylsulfonyl)-2,8-diazaspiro[4.5]decane-8-carboxylate] | 344 nM
CC(C)(O)C1CCN(S(=O)(=O)c2cc(C(N)=O)c(NC(=O)c3ccccc3F)s2)CC1 [Compound 149, 2-(2-fluorobenzamido)-5-(4-(2-hydroxypropan-2-yl)piperidin-1-ylsulfonyl) thiophene-3-carboxamide] | 517 nM
NC(=O)c1cc(S(=O)(=O)N2CCc3ccccc3C2)sc1NC(=O)c1ccccc1F [Compound 150] | 638 nM
NC(=O)c1cc(S(=O)(=O)N2Cc3ccccc3C2)sc1NC(=O)c1ccccc1F [Compound 151, 2-(2-fluorobenzamido)-5-(isoindolin-2-ylsulfonyl)thiophene-3-carboxamide] | 357 nM
CN1CCC(N(C)S(=O)(=O)c2cc(C(N)=O)c(NC(=O)c3ccccc3F)s2)CC1 [Compound 155, 2-(2-fluorobenzamido)-5-(N-methyl-N-(1-methylpiperidin-4-yl)sulfamoyl) thiophene-3-carboxamide] | > 1000 nM
NC(=O)c1cc(S(=O)(=O)N(Cc2cccc(F)c2)C2CC2)sc1NC(=O)c1ccccc1F [Compound 156, 5-(N-cyclopropyl-N-(3-fluorobenzyl)sulfamoyl)-2-(2-fluorobenzamido) thiophene-3-carboxamide] | 361 nM
NC(=O)c1cc(S(=O)(=O)N2CCC(c3ccccc3)CC2)sc1NC(=O)c1ccccc1F [Compound 159, 2-(2-fluorobenzamido)-5-(4-phenylpiperidin-1-ylsulfonyl)thiophene-3-carboxamide] | 407 nM
CN(C1CCOCC1)S(=O)(=O)c1cc(C(N)=O)c(NC(=O)c2ccccc2F)s1 [Compound 161, 2-(2-fluorobenzamido)-5-(N-methyl-N-(tetrahydro-2H-pyran-4-yl)sulfamoyl) thiophene-3-carboxamide] | 221 nM
CC(C)S(=O)(=O)c1cc(C(N)=O)c(NC(=O)c2ccccc2F)s1 [Compound 163, 2-(2-fluorobenzamido)-5-(isopropylsulfonyl) thiophene-3-carboxamide] | 272 nM
CC(C)(C)S(=O)(=O)c1cc(C(N)=O)c(NC(=O)c2ccccc2F)s1 [Compound 164, 5-(tert-butylsulfonyl)-2-(2-fluorobenzamido) thiophene-3-carboxamide] | > 1000 nM
NC(=O)c1cc(S(=O)(=O)C2CCOCC2)sc1NC(=O)c1ccccc1F [Compound 165, 2-(2-fluorobenzamido)-5-(tetrahydro-2H-pyran-4-ylsulfonyl)thiophene-3-carboxamide] | > 1000 nM
CN(C)C1CCN(S(=O)(=O)c2cc(C(N)=O)c(NC(=O)c3ccccc3F)s2)CC1 [Compound 174, 5-(4-(dimethylamino)piperidin-1-ylsulfonyl)-2-(2-fluorobenzamido) thiophene-3-carboxamide] | 2370 nM
N#CC1CN(S(=O)(=O)c2cc(C(N)=O)c(NC(=O)c3ccccc3F)s2)C1 [Compound 176, 5-(3-cyanoazetidin-1-ylsulfonyl)-2-(2-fluorobenzamido)thiophene-3-carboxamide] | 1460 nM
NC(=O)c1cc(S(=O)(=O)N2CC(F)C2)sc1NC(=O)c1ccccc1F [Compound 177, 5-(3-fluoroazetidin-1-ylsulfonyl)-2-(2-fluorobenzamido)thiophene-3-carboxamide] | 178 nM
NC(=O)c1cc(S(=O)(=O)c2ccccn2)sc1NC(=O)c1ccccc1F [Compound 178, 2-(2-fluorobenzamido)-5-(pyridin-2-ylsulfonyl) thiophene-3-carboxamide] | 524 nM
Cc1ccccc1S(=O)(=O)c1cc(C(N)=O)c(NC(=O)c2ccccc2F)s1 [Compound 180, 2-(2-fluorobenzamido)-5-(o-tolylsulfonyl)thiophene-3-carboxamide] | 123 nM
COc1ccccc1S(=O)(=O)c1cc(C(N)=O)c(NC(=O)c2ccccc2F)s1 [Compound 181, 2-(2-fluorobenzamido)-5-(2-methoxyphenylsulfonyl) thiophene-3-carboxamide] | 144 nM
CN(CC(C)(C)C)S(=O)(=O)c1cc(C(N)=O)c(NC(=O)c2ccccc2F)s1 [Compound 184, 2-(2-fluorobenzamido)-5-(N-methyl-N-neopentylsulfamoyl) thiophene-3-carboxamide] | 679 nM
CN(CCC(F)(F)F)S(=O)(=O)c1cc(C(N)=O)c(NC(=O)c2ccccc2F)s1 [Compound 185, 2-(2-fluorobenzamido)-5-(N-methyl-N-(3,3,3-trifluoropropyl)sulfamoyl) thiophene-3-carboxamide] | 335 nM
COCCCN(C)S(=O)(=O)c1cc(C(N)=O)c(NC(=O)c2ccccc2F)s1 [Compound 186, 2-(2-fluorobenzamido)-5-(N-(3-methoxypropyl)-N-methylsulfamoyl)thiophene-3-carboxamide] | 270 nM
CN(C)C1CN(S(=O)(=O)c2cc(C(N)=O)c(NC(=O)c3ccccc3F)s2)C1 [Compound 187, 5-(3-(dimethylamino)azetidin-1-ylsulfonyl)-2-(2-fluorobenzamido)thiophene-3-carboxamide] | 1600 nM
CN(C(c1ccccc1)C(F)(F)F)S(=O)(=O)c1cc(C(N)=O)c(NC(=O)c2cc[nH]n2)s1 (stereo not drawn) [Compound 195, N-(3-carbamoyl-5-(N-methyl-N-(2,2,2-trifluoro-phenylethyl)sulfamoyl)thiophen-2-yl)-1H-pyrazole-3-carboxamide] | 258 nM
NC(=O)c1cc(S(=O)(=O)c2ccc(F)cc2CO)sc1NC(=O)c1ccccc1F [Compound 196, 5-(4-fluoro-2-(hydroxymethyl)phenylsulfonyl)-2-(2-fluorobenzamido) thiophene-3-carboxamide] | 2100 nM

Second part, the molecule after the results:

EC50 | Compound
946 nM | NC(=O)c1cc(S(=O)(=O)N2CCOCC2)sc1NC(=O)c1cccc(C2CC2)c1 [Compound 134, 2-(3-cyclopropylbenzamido)-5-(morpholinosulfonyl) thiophene-3-carboxamide]
> 1000 nM | COc1cc(C)ccc1C(=O)Nc1sc(S(=O)(=O)N2CCOCC2)cc1C(N)=O [Compound 135, 2-(2-methoxy-4-methylbenzamido)-5-(morpholinosulfonyl) thiophene-3-carboxamide]
291 nM | Cc1ccccc1C(=O)Nc1sc(S(=O)(=O)N2CCOCC2)cc1C(N)=O [Compound 136, 2-(2-methylbenzamido)-5-(morpholinosulfonyl) thiophene-3-carboxamide]
263 nM | NC(=O)c1cc(S(=O)(=O)N2CCOCC2)sc1NC(=O)c1cccc(O)c1 [Compound 137, 2-(3-hydroxybenzamido)-5-(morpholinosulfonyl) thiphene-3-carboxamide]
313 nM | NC(=O)c1cc(S(=O)(=O)N2CCOCC2)sc1NC(=O)c1ccc(F)cc1F [Compound 138, 2-(2,4-difluorobenzamido)-5-(morpholinosulfonyl) thiophene-3-carboxamide]
241 nM | NC(=O)c1cc(S(=O)(=O)N2CCCOCC2)sc1NC(=O)c1cc[nH]n1 [Compound 146, N-(5-(1,4-oxazepan-4-ylsulfonyl)-3-carbamoylthiophen-2-yl)-1H-pyrazole-3-carboxamide]
331 nM | N#CC1CCN(S(=O)(=O)c2cc(C(N)=O)c(NC(=O)c3ccccc3F)s2)CC1 [Compound 162, 5-(4-cyanopiperidin-1-ylsulfonyl)-2-(2-fluorobenzamido) thiophene-3-carboxamide]
815 nM | Cc1cc(C(=O)Nc2sc(S(=O)(=O)N3CCOCC3)cc2C(N)=O)n[nH]1 [Compound 166, N-(3-carbamoyl-5-(morpholinosulfonyl)thiophen-2-yl)-5-methyl-1H-pyrazole-3-carboxamide]
3050 nM | Cn1nc(C(C)(C)C)cc1C(=O)Nc1sc(S(=O)(=O)N2CCOCC2)cc1C(N)=O [Compound 167, 3-tert-butyl-N-(3-carbamoyl-5-(morpholinosulfonyl)thiophen-2-yl)-1-methyl-1H-pyrazole-5-carboxamide]
1660 nM | COc1cc(F)ccc1C(=O)Nc1sc(S(=O)(=O)N2CCOCC2)cc1C(N)=O [Compound 168, 2-(4-fluoro-2-methoxybenzamido)-5-(morpholinosulfonyl) thiophene-3-carboxamide]
210 nM | Cc1cc(F)ccc1C(=O)Nc1sc(S(=O)(=O)N2CCOCC2)cc1C(N)=O [Compound 169, 2-(4-fluoro-2-methylbenzamido)-5-(morpholinosulfonyl) thiophene-3-carboxamide]
2100 nM | NC(=O)c1cc(S(=O)(=O)N2CC3(COC3)C2)sc1NC(=O)c1ccccc1F [Compound 188, 5-(2-oxa-6-azaspiro[3.3]heptan-6-ylsulfonyl)-2-(2-fluorobenzamido) thiophene-3-carboxamide]
1970 nM | NC(=O)c1cc(S(=O)(=O)N2CCOCC2)sc1NC(=O)C1(O)CCC1 [Compound 199, 2-(1-hydroxycyclobutanecarboxamido)-5-(morpholinosulfonyl) thiophene-3-carboxamide]
3330 nM | NC(=O)c1cc(S(=O)(=O)N2CCOCC2)sc1NC(=O)C1(O)CCOCC1 [Compound 200, N-(3-carbamoyl-5-(morpholinosulfonyl)thiophen-2-yl)-4-hydroxytetrahydro-2H-pyran-4-carboxamide]
